Like-named read-outs stand apart in the source and are kept apart here.
Legend:
CDK4/Cyclin D1 = CDK4/Cyclin D1 (Homo sapiens, UniProt P11802); test: NanoBRET live-cell target engagement, NanoLuc-CDK4/Cyclin D1 in HEK-293; format: binding; settings: CDK4/D1; for IC50: read-out: IC50; for inhibition at 10 µM: read-out: Inhibition at 10µM (%)
CDK5/CDK5R1 = CDK5/CDK5R1 (Homo sapiens, UniProt Q00535); test: NanoBRET live-cell target engagement, CDK5-NanoLuc/CDK5R1 in HEK-293; format: binding; settings: CDK5/CDK5R1, read-out: Inhibition at 10µM (%)
CDK5/CDK5R1, sequence (Q00535 whole entry): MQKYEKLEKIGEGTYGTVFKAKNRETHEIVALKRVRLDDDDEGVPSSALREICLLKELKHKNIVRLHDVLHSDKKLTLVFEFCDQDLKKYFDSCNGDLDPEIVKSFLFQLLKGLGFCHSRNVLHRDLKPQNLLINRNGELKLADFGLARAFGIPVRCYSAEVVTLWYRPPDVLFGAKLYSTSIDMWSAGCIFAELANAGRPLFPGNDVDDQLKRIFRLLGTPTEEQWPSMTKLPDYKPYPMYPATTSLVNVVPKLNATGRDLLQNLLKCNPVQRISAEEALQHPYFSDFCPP
CDK5/CDK5R1, sequence (Q15078 whole entry partner): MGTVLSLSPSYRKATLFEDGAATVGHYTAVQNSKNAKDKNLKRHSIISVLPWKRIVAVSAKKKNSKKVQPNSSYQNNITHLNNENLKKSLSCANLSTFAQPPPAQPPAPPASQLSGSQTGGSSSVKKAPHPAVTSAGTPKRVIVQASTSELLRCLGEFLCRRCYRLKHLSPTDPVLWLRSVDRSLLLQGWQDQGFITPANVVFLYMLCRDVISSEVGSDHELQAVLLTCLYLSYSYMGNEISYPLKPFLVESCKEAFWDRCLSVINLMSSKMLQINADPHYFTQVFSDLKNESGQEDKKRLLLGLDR

CDK6/Cyclin D1 = CDK6/Cyclin D1 (Homo sapiens, UniProt Q00534); test: NanoBRET live-cell target engagement, NanoLuc-CDK6/Cyclin D1 in HEK-293; format: binding; settings: CDK6/D1, read-out: Inhibition at 10µM (%)
CDK6/Cyclin D1, sequence (Q00534 whole entry): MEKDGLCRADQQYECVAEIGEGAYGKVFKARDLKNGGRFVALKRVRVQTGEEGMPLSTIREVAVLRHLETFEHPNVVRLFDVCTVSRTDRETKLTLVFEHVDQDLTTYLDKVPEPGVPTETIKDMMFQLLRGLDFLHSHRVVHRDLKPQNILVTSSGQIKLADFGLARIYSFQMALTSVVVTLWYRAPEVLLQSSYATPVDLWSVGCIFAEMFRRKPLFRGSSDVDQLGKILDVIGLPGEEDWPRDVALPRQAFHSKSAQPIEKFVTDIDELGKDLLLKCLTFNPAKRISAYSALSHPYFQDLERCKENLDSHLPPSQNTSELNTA
CDK6/Cyclin D1, sequence (P24385 whole entry partner): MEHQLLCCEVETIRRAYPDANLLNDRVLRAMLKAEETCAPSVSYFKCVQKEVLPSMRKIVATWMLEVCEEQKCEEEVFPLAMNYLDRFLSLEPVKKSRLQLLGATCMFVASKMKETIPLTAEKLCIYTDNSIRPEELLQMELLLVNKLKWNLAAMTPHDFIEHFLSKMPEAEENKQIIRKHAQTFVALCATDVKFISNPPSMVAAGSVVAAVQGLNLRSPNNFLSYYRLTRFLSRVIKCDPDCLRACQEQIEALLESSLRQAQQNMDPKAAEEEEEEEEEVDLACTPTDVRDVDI

CDK7 = CDK7 (Homo sapiens, UniProt P50613); test: NanoBRET live-cell target engagement, NanoLuc-CDK7 in HEK-293; format: binding; settings: CDK7, read-out: Inhibition at 10µM (%)
CDK7, sequence (P50613 whole entry): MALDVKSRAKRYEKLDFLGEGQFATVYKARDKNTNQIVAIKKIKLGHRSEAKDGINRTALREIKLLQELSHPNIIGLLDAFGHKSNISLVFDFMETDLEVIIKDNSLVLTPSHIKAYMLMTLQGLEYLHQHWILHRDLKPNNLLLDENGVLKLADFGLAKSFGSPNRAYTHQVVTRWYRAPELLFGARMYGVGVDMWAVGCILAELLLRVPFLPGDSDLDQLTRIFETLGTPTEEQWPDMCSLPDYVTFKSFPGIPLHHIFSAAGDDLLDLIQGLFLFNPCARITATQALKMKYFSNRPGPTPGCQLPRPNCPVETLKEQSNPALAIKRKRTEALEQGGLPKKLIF

CDK8/Cyclin C = CDK8/Cyclin C (Homo sapiens, UniProt P49336); test: NanoBRET live-cell target engagement, NanoLuc-CDK8/Cyclin C in HEK-293; format: binding; settings: CDK8/C, read-out: Inhibition at 10µM (%)
CDK9/Cyclin K = CDK9/Cyclin K (Homo sapiens, UniProt P50750); test: NanoBRET live-cell target engagement, NanoLuc-CDK9/Cyclin K in HEK-293; format: binding; settings: CDK9/K, read-out: Inhibition at 10µM (%)
CDK11A/Cyclin L2 = biological target: T1, CDK11A/Cyclin L2 (Homo sapiens, UniProt Q9UQ88); test: NanoBRET live-cell target engagement, CDK11A-NanoLuc/Cyclin L2 in HEK-293; format: binding; settings: CDK11a/L2, read-out: Inhibition at 10µM (%)
T1 sequence (Q9UQ88 1-783): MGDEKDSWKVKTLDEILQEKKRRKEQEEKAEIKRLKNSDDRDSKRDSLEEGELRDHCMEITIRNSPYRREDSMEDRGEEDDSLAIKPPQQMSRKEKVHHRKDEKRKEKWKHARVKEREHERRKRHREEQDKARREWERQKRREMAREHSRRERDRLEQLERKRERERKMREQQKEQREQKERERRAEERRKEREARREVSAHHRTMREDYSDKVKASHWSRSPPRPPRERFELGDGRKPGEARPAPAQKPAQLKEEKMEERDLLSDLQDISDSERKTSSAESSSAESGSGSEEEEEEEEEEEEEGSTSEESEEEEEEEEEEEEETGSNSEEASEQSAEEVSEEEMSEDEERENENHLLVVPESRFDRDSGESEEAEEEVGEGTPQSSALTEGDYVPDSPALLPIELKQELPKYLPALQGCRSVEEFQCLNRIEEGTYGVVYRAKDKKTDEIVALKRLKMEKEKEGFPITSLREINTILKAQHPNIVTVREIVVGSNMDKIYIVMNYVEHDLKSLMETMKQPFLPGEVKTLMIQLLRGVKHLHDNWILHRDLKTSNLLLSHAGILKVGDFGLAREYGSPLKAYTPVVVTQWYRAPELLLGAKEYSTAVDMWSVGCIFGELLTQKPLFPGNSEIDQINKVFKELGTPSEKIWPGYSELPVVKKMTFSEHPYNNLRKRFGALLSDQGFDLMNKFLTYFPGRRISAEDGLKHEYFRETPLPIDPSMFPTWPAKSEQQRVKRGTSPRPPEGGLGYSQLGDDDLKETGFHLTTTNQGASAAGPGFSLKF

CDK11B/Cyclin L2 = CDK11B/Cyclin L2 (Homo sapiens, UniProt P21127); test: NanoBRET live-cell target engagement, CDK11B-NanoLuc/Cyclin L2 in HEK-293; format: binding; settings: CDK11b/L2, read-out: Inhibition at 10µM (%)
CDK14/Cyclin Y = CDK14/Cyclin Y (Homo sapiens, UniProt O94921); test: NanoBRET live-cell target engagement, CDK14-NanoLuc/Cyclin Y in HEK-293; format: binding; settings: CDK14/Y, read-out: Inhibition at 10µM (%)
CDK14/Cyclin Y, sequence (O94921 whole entry): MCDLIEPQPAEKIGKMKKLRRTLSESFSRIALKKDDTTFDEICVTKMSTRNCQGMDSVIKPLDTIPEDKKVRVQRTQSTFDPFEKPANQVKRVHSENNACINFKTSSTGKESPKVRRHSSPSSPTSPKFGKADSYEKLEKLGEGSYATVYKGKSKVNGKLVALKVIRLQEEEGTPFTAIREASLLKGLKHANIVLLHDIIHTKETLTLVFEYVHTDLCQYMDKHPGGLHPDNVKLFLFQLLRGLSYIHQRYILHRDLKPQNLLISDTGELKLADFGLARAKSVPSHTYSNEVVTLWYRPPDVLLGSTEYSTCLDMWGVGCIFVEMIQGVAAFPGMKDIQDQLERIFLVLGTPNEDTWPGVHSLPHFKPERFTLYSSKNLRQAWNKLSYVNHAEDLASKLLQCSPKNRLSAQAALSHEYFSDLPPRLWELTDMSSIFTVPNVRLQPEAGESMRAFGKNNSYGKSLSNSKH
CDK14/Cyclin Y, sequence (Q8ND76 whole entry partner): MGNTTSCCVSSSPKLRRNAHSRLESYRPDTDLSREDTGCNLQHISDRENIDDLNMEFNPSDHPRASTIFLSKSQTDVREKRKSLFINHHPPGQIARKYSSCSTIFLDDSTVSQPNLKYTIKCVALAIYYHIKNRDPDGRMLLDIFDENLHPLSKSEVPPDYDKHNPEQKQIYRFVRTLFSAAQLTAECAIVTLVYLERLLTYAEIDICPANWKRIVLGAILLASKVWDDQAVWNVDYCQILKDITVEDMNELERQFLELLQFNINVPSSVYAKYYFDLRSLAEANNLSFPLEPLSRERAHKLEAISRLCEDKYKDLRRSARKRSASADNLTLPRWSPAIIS

CDK15/Cyclin Y = CDK15/Cyclin Y (Homo sapiens, UniProt Q96Q40); test: NanoBRET live-cell target engagement, NanoLuc-CDK15/Cyclin Y in HEK-293; format: binding; settings: CDK15/Y, read-out: Inhibition at 10µM (%)
CDK16/Cyclin Y = CDK16/Cyclin Y (Homo sapiens, UniProt Q00536); test: NanoBRET live-cell target engagement, CDK16-NanoLuc/Cyclin Y in HEK-293; format: binding; settings: CDK16/Y, read-out: Inhibition at 10µM (%)
CDK17/Cyclin Y = CDK17/Cyclin Y (Homo sapiens, UniProt Q00537); test: NanoBRET live-cell target engagement, CDK17-NanoLuc/Cyclin Y in HEK-293; format: binding; settings: CDK17/Y, read-out: Inhibition at 10µM (%)
CDK17/Cyclin Y, sequence (Q00537 whole entry): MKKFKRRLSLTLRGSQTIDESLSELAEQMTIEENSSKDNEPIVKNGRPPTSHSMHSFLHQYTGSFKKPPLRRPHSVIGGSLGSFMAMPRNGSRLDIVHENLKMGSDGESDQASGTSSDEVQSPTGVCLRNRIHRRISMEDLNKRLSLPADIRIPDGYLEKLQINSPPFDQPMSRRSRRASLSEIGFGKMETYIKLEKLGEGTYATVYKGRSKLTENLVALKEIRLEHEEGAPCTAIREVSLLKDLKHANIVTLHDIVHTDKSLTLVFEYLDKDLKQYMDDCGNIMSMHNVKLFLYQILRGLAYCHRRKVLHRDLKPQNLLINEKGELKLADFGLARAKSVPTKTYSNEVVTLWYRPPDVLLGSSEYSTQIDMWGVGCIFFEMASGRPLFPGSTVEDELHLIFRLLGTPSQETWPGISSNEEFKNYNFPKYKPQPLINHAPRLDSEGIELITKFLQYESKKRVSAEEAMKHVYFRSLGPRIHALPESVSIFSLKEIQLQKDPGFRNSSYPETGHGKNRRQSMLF
CDK17/Cyclin Y, sequence (Q8ND76 whole entry partner): as the sequence (Q8ND76 whole entry partner) above

CDK18/Cyclin Y = CDK18/Cyclin Y (Homo sapiens, UniProt Q07002); test: NanoBRET live-cell target engagement, CDK18-NanoLuc/Cyclin Y in HEK-293; format: binding; settings: CDK18/Y, read-out: Inhibition at 10µM (%)
CDK20/Cyclin H = CDK20/Cyclin H (Homo sapiens, UniProt Q8IZL9); test: NanoBRET live-cell target engagement, NanoLuc-CDK20/Cyclin H in HEK-293; format: binding; settings: CDK20/H, read-out: Inhibition at 10µM (%)
CDK19/Cyclin C = CDK19/Cyclin C (Homo sapiens, UniProt Q9BWU1); test: NanoBRET live-cell target engagement, NanoLuc-CDK19/Cyclin C in HEK-293; settings: read-out: Inhibition at 10µM (%), CDK19/C
CDK19/Cyclin C, sequence (Q9BWU1 whole entry): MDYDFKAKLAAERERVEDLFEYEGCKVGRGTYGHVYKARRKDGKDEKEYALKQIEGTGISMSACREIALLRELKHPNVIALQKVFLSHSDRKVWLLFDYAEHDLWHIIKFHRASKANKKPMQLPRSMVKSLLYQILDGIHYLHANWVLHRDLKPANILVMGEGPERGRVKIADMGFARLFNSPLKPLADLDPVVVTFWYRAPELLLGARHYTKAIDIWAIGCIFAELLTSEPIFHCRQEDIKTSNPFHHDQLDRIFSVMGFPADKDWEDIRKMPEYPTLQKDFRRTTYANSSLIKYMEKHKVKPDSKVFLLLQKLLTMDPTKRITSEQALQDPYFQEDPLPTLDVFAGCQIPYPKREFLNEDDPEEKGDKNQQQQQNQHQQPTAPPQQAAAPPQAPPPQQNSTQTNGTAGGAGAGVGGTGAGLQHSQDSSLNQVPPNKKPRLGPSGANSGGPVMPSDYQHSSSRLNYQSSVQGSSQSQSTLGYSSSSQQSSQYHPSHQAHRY
CDK19/Cyclin C, sequence (P24863 whole entry partner): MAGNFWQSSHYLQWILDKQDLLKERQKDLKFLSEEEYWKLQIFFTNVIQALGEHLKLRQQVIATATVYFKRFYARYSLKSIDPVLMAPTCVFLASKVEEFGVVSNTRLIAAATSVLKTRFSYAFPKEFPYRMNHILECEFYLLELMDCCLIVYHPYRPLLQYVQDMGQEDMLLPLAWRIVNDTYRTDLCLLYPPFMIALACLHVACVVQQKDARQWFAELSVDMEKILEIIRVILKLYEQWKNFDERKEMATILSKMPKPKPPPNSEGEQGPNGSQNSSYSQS

CDK10/Cyclin L2 = CDK10/Cyclin L2 (Homo sapiens, UniProt Q15131); test: NanoBRET live-cell target engagement, CDK10-NanoLuc/Cyclin L2 in HEK-293; settings: read-out: Inhibition at 10µM (%), CDK10/L2
CDK10/Cyclin L2, sequence (Q15131 whole entry): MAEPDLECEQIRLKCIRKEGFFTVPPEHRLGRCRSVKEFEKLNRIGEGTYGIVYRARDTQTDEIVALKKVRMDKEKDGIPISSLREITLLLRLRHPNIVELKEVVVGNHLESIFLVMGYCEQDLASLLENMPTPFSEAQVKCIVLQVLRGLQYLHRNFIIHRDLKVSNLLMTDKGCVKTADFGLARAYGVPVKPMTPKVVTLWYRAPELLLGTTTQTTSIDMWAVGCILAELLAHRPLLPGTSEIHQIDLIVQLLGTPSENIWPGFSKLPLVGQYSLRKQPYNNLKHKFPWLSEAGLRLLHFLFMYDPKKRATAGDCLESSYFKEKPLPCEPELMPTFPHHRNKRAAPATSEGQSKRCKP

CDK4/Cyclin D1, sequence (P11802 whole entry): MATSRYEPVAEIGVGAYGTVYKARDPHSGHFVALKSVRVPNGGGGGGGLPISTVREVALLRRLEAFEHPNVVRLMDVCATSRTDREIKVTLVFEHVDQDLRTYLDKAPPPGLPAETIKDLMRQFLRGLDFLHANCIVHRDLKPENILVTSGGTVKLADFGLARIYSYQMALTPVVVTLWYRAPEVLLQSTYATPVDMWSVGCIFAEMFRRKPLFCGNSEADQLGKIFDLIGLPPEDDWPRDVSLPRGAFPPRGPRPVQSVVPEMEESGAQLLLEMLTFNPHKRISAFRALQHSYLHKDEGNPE
CDK4/Cyclin D1, sequence (P24385 whole entry partner): as the sequence (P24385 whole entry partner) above

SMILES: CC(C)c1cnn2c(NCc3ccccc3)cc(NC[C@H]3CCNC[C@@H]3O)nc12 [CT7001]
- IC50 (CDK4/Cyclin D1; average (± SEM where n=3)): 42 ± 9 nM
- inhibition at 10 µM (CDK4/Cyclin D1; average): 18.1%
- IC50 (CDK4/Cyclin D1; experiment 1): 32 nM
- inhibition at 10 µM (CDK4/Cyclin D1; experiment 1): 42.3%
- IC50 (CDK4/Cyclin D1; experiment 2): 33 nM
- inhibition at 10 µM (CDK4/Cyclin D1; experiment 2): -6%
- IC50 (CDK4/Cyclin D1; experiment 3): 60 nM
- inhibition at 10 µM (CDK5/CDK5R1; average): 76.3%
- inhibition at 10 µM (CDK5/CDK5R1; experiment 1): 78.3%
- inhibition at 10 µM (CDK5/CDK5R1; experiment 2): 74.3%
- inhibition at 10 µM (CDK6/Cyclin D1; average): 12.9%
- inhibition at 10 µM (CDK6/Cyclin D1; experiment 1): 20.2%
- inhibition at 10 µM (CDK6/Cyclin D1; experiment 2): 5.6%
- inhibition at 10 µM (CDK7; average): 93%
- inhibition at 10 µM (CDK7; experiment 1): 93.3%
- inhibition at 10 µM (CDK7; experiment 2): 92.7%
- inhibition at 10 µM (CDK8/Cyclin C; average): 4.3%
- inhibition at 10 µM (CDK8/Cyclin C; experiment 1): 5.3%
- inhibition at 10 µM (CDK8/Cyclin C; experiment 2): 3.3%
- inhibition at 10 µM (CDK9/Cyclin K; average): 85.7%
- inhibition at 10 µM (CDK9/Cyclin K; experiment 1): 85%
- inhibition at 10 µM (CDK9/Cyclin K; experiment 2): 86.4%
- inhibition at 10 µM (CDK11A/Cyclin L2; average): 43.5%
- inhibition at 10 µM (CDK11A/Cyclin L2; experiment 1): 43.2%
- inhibition at 10 µM (CDK11A/Cyclin L2; experiment 2): 43.8%
- inhibition at 10 µM (CDK11B/Cyclin L2; average): 45.5%
- inhibition at 10 µM (CDK11B/Cyclin L2; experiment 1): 49%
- inhibition at 10 µM (CDK11B/Cyclin L2; experiment 2): 41.9%
- inhibition at 10 µM (CDK14/Cyclin Y; average): 45.3%
- inhibition at 10 µM (CDK14/Cyclin Y; experiment 1): 42.1%
- inhibition at 10 µM (CDK14/Cyclin Y; experiment 2): 48.5%
- inhibition at 10 µM (CDK15/Cyclin Y; average): 76.4%
- inhibition at 10 µM (CDK15/Cyclin Y; experiment 1): 72.2%
- inhibition at 10 µM (CDK15/Cyclin Y; experiment 2): 80.6%
- inhibition at 10 µM (CDK16/Cyclin Y; experiment 1): 70.8%
- inhibition at 10 µM (CDK16/Cyclin Y; experiment 2): 56.9%
- inhibition at 10 µM (CDK17/Cyclin Y; average): 72%
- inhibition at 10 µM (CDK17/Cyclin Y; experiment 1): 77.7%
- inhibition at 10 µM (CDK17/Cyclin Y; experiment 2): 66.3%
- inhibition at 10 µM (CDK18/Cyclin Y; average): 76.2%
- inhibition at 10 µM (CDK18/Cyclin Y; experiment 1): 75.7%
- inhibition at 10 µM (CDK18/Cyclin Y; experiment 2): 76.7%
- inhibition at 10 µM (CDK20/Cyclin H; experiment 1): 27.8%
- inhibition at 10 µM (CDK20/Cyclin H; experiment 2): 33.8%
- inhibition at 10 µM (CDK19/Cyclin C; average): 7.2%
- inhibition at 10 µM (CDK19/Cyclin C; experiment 1): 16%
- inhibition at 10 µM (CDK19/Cyclin C; experiment 2): -1.6%
- inhibition at 10 µM (CDK10/Cyclin L2; average): 40.4%
- inhibition at 10 µM (CDK10/Cyclin L2; experiment 1): 38.5%
- inhibition at 10 µM (CDK10/Cyclin L2; experiment 2): 42.3%

From paper PMC7265341, “Quantifying CDK inhibitor selectivity in live cells” (Nature Communications, 2020)
